Side chains are listed from the residue outwards. Peptide text beside a SMILES is read from it. * marks the point of attachment. X1 = NCCCC[C@H](N)CN1CCC[C@H]1C(=O)*
Key:
[1] = system: NIH-3T3 cells; assay: Proliferation of NIH-3T3 cells stimulated by 5% foetal calf serum (tritiated thymidine incorporation); format: cell-based; settings: non-stimulated NIH-3T3 cells
Description: FIG. 5. Effect of HB-19 on the proliferation of NIH-3T3 cells stimulated by 0.2 nM FGF-2 (A) or by 5% foetal calf serum (B). Quiescent NIH-3T3 cells are stimulated by FGF-2 or by 5% serum in the presence or not of HB19 at the concentrations indicated. After 24 hours of incubation, cell proliferation was determined by measuring the incorporation of tritiated thymidine. The results are given as a percentage with respect to the control stimulated by HARP (100%). MSD (threshold), (**p<0.01 and ***p<0.001).
FIG. 14. Effect of NUCANT 3, 6 and 7 on the proliferation of NIH-3T3 cells stimulated by 5% FCS. […] After 24 hours of incubation, cell proliferation was determined by measuring the incorporation of tritiated thymidine. […]
The effect of Nucant 3 on the proliferation of NIH-3T3 cells treated by 5% of FCS was also compared to that of compound HB-19. […] After 24 hours in incubation, cell proliferation is determined by measuring the incorporation of tritiated thymidine as described earlier.
The effect of hexavalent compounds Nucant 6 and Nucant 7 on the proliferation of NIH-3T3 cells triggered by 5% FCS was compared with that of pentavalent compound HB-19. […] After 24 hours of incubation, cell proliferation was determined by measuring the incorporation of tritiated thymidine as described above.

[2] = target: T1, surface nucleolin (Homo sapiens, UniProt P19338); assay: Activity of surface nucleolin in HeLa P4 cells; format: cell-based
T1 construct: endogenous in cells; host or cells: HeLa P4 cells
T1 sequence (P19338 whole entry): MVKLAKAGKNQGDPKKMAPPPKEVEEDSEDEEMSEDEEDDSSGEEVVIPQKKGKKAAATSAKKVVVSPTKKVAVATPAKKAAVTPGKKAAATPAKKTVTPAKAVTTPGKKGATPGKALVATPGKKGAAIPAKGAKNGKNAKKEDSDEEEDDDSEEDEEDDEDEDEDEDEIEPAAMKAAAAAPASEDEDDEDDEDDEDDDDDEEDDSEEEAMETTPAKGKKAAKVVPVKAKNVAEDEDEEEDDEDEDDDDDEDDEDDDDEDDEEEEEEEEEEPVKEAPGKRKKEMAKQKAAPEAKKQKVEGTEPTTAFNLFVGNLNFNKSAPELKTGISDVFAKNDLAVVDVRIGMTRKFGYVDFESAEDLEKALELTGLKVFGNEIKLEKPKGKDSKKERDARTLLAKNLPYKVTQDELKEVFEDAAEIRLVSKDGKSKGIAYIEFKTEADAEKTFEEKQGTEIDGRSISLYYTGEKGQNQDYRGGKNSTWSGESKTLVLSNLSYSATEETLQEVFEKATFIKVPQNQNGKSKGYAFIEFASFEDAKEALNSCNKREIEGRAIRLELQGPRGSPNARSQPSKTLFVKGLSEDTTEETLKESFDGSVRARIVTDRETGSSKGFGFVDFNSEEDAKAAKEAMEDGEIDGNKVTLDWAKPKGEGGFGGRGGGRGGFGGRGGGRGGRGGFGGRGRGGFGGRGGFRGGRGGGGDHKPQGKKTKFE
Description: FIG. 15. Nucant 6 and Nucant 7 show better anti-surface nucleolin activity than HB-19. ID50: concentration in μM which inhibits surface nucleolin by 50%. ID95: concentration in μM which inhibits surface nucleolin by 95%.
The activity of surface nucleolin was tested in HeLa P4 cells using the technique we have described previously (13).

[3] = system: MDA-MB231 tumours; assay: Tumour growth in MDA-MB231 xenograft model in athymic mice; format: in vivo, athymic mice (nude/nude)
Description: FIG. 9. Effect of HB-19 on tumour growth in an MDA-MB231 xenograft model. Human mammary carcinoma MDA-MB231 cells were injected subcutaneously athymic mice (nude). When the tumour reached a volume of 200 mm^3, mice were treated by subcutaneous route as shown in graph in A. B. Observation and measurement of tumours in mice sacrificed at day 40. C. Tumour weight in mice sacrificed at day 40.
FIG. 10. Effect of HB-19 on tumour growth in an MDA-MB231 xenograft model. Changes in tumour growth. Intraperitoneal (IP) or subcutaneous (SC) injections.
Groups of 4 athymic mice (nude/nude) were injected in the flank with 2×10^6 cells. When tumour volume reached at least 200 mm^3, mice were either treated or not by injection in the tumour (peritumoral or subcutaneous route) of 100 μl every two days of a PBS solution (control group) or HB-19 solution (5 mg/kg) or a commonly used clinical agent, tamoxifen (also called […], 10 mg/kg). Tumour size was measured on days 7, 14, 21, 28, 34 and 40 using a calliper.
In another experiment, HB19 (5 mg/kg) was administered by intraperitoneal route (IP) and peritumoral route (SC) (FIG. 10).

[4] = cited from earlier work
[5] = 10 mg/kg, mice sacrificed after 40 days of treatment

With `CC(=O)N[C@@H](CCCCNC(=O)[C@H](CCCNC(=N)N)NC(=O)[C@@H]1CCCN1C[C@@H](N)CCCCN)C(=O)N[C@@H](C)C(=O)N[C@@H](CCCCNC(=O)[C@H](CCCNC(=N)N)NC(=O)[C@@H]1CCCN1C[C@@H](N)CCCCN)C(=O)N1CCC[C@H]1C(=O)NCC(=O)N[C@@H](CCCCNC(=O)[C@H](CCCNC(=N)N)NC(=O)[C@@H]1CCCN1C[C@@H](N)CCCCN)C(=O)N[C@@H](C)C(=O)N[C@@H](CCCCNC(=O)[C@H](CCCNC(=N)N)NC(=O)[C@@H]1CCCN1C[C@@H](N)CCCCN)C(=O)N1CCC[C@H]1C(=O)NCC(=O)N[C@@H](CCCCNC(=O)[C@H](CCCNC(=N)N)NC(=O)[C@@H]1CCCN1C[C@@H](N)CCCCN)C(=O)N[C@@H](C)C(=O)N[C@@H](CCCCNC(=O)[C@H](CCCNC(=N)N)NC(=O)[C@@H]1CCCN1C[C@@H](N)CCCCN)C(=O)N1CCC[C@H]1C(=O)NCC(N)=O` [Nucant 7] (Ac-K([Arg-X1])AK([Arg-X1])PGK([Arg-X1])AK([Arg-X1])PGK([Arg-X1])AK([Arg-X1])PG-NH2) the “effect on non-stimulated cells (toxicity)” value [1] was “No effect”, the inhibition at 0.8 µM ([2]; M-HeLa, 0.8 μM) was greater than 95% and the IC50 ([2]; read-out: ID50 value (Inhibitory Dose at 50%), surface nucleolin activity) was less than 100 nM.
In the case of `CC/C(=C(\c1ccccc1)c1ccc(OCCN(C)C)cc1)c1ccccc1` [tamoxifen], the “change of tumour volume from the start of treatment” value ([3]; 10 mg/kg every two days) is reported as “did not change in a significant manner”, the “average weight of tumours” value [3, 5] is reported as 0.06 g and the “distribution of tumour weight” value [3, 5] is reported as 0.006 to 0.22 g.
For Avastin: anti-angiogenic agent, the survival ([4]; complement to chemotherapy (irinotecan/5-fluorouracile/leucovorin)) is given as 20.3 months and the “length of time during which the tumour did not grow” value ([4]; complement to chemotherapy) is given as 10.6 months.

From patent US8497349B2, “Use of multivalent synthetic ligands of surface nucleolin for treating cancer or inflammation” (Centre National de la Recherche Scientifique (CNRS), priority 2006, dated 2013)
